Our source for the EC50 values is patent publication US12612407B2, “Imidazo[2,1-f][1,2,4]triazin-4-amine derivatives as TLR7 agonist” (BEIGENE, LTD., priority 2020, dated 2026).

SMILES strings stand for the structures. A value given as a limit tells only on which side of the number the result lay.

One experiment deals with T1, human TLR 8 protein (Homo sapiens, UniProt Q9NR97).
T1 construct: expressed in transfected cells; host or cells: HEK293 (HEK-Blue hTLR8)
T1 sequence (Q9NR97 27-1041): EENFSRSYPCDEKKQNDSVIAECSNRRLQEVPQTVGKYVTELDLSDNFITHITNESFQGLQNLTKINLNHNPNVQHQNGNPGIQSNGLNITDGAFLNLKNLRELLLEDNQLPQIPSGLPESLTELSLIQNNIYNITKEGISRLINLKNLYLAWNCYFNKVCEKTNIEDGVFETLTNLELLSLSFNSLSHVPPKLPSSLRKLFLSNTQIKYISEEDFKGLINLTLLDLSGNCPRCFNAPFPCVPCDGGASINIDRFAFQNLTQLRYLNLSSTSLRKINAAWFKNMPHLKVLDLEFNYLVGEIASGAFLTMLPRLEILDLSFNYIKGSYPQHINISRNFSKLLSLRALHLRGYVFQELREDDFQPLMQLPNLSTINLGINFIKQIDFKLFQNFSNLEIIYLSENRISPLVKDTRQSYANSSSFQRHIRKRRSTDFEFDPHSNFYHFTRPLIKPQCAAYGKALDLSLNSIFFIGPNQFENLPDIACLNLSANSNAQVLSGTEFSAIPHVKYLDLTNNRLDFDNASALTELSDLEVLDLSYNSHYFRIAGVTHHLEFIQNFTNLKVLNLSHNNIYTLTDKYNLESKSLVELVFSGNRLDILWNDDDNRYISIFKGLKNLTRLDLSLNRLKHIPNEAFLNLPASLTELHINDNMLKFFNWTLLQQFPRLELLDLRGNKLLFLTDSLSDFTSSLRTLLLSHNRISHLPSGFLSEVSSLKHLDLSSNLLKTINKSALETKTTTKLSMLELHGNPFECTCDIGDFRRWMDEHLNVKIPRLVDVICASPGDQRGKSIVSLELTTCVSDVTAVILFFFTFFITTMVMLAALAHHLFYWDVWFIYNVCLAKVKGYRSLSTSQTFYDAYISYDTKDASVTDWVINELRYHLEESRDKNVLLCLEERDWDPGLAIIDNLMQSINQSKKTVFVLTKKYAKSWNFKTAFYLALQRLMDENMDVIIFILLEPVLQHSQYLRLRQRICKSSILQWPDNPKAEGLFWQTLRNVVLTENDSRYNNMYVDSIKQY
As to the kind of experiment: TLR8 Stimulation determined using HEK-Blue Detection. Conditions: HEK-Blue hTLR8 cells, 16 hr, percentages of maximum activation with Resiquimod or Motolimod, Table 3. Format: cell-based. The text has this:
TLR8 Stimulation determined using HEK-Blue Detection
(§1) This assay was designed for studying the stimulation of human TLR 8 protein in HEK-Blue hTLR8 tool cell line by monitoring the activation of NF-κB. HEK-Blue hTLR8 cells were obtained by co-transfection of the hTLR8 gene and an optimized secreted embryonic alkaline phosphatase (SEAP) reporter gene into HEK293 cells. The SEAP reporter gene was placed under the control of the IFN-β minimal promoter fused to five NF-κB and AP-1-binding sites. Stimulation with a TLR 8 ligand activates NF-κB and AP-1 which induce the expression of SEAP. Levels of SEAP can be easily determined with HEK-Blue Detection, a cell culture medium that allows for real-time detection of SEAP. HEK-Blue Detection contains all the nutrients necessary for cell growth and a specific SEAP color substrate. The hydrolysis of the substrate by SEAP produces a purple/blue color that can be measured with a spectrophotometer.
When growing to 50-80% confluency, HEK-Blue hTLR7/8 cells were plated into 96-well plate (costar 3599) at a density of 40000 cells/well. Then compounds were added with serial dilutions over 10 points with a 1 nM-10 uM final concentration range in 0.1% DMSO/HEK-Blue Detection. The plates were then incubated for 16 hr at 37° C. in 5% CO2. The optical density at 620-655 nm was read on BMG PHERAstar FSX instrument. The EC50 for each compound was determined by calculating the percentages of the maximum activation identified with Resiquimod or Motolimod.

A further experiment deals with T2, human TLR7 (Homo sapiens, UniProt Q9NYK1).
T2 construct: host or cells: HEK293 (HEK-Blue hTLR7)
T2 sequence (Q9NYK1 27-1049): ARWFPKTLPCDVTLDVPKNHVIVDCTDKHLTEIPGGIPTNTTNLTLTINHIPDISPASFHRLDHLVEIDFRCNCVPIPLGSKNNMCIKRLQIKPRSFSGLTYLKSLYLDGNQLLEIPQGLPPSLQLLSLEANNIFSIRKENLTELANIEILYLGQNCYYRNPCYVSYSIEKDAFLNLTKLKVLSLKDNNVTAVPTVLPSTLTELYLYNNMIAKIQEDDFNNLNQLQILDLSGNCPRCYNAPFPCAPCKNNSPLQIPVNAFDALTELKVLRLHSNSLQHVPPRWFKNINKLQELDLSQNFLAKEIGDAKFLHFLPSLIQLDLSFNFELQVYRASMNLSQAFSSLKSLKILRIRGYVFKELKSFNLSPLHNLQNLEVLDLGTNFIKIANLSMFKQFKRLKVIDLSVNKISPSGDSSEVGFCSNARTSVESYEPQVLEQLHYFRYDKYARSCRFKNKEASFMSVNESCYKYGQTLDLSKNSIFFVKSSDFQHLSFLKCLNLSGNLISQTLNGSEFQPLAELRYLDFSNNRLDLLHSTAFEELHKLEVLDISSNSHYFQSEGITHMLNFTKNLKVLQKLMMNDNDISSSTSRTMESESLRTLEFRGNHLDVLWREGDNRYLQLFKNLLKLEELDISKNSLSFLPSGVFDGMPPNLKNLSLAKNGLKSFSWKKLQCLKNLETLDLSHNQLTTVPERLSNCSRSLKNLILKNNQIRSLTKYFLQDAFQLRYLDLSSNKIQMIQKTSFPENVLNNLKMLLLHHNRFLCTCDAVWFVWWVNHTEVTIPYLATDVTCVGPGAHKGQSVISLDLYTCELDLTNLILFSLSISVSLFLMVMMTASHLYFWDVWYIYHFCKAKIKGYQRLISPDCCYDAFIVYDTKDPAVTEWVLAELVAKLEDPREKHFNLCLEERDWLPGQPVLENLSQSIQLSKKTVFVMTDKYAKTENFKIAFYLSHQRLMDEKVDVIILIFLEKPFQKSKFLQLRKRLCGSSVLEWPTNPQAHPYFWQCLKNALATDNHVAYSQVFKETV
As to the kind of experiment: TLR7 Stimulation Determined Using HEK-Blue Detection. Format: cell-based. The note with it: HEK-Blue hTLR7 cells, 16 hr, percentages of maximum activation with Resiquimod, Table 1, B233-B247.
Source text: TLR7 Stimulation Determined Using HEK-Blue Detection
as §1, with “TLR7” for “TLR 8”, “hTLR7” for “hTLR8”
When growing to 50-80% confluency, HEK-Blue hTLR7 cells were plated into 96-well plate (costar 3599) at a density of 40000 cells/well. Then compounds were added with serial dilutions over 10 points with a 0.04 nM-10 μM final concentration range in 0.1% DMSO/HEK-Blue Detection. The plates were then incubated for 16 hr at 37° C. in 5% CO2 and vortex for 30 s before measurement. The optical density at 620-655 nm was read on BMG PHERAstar FSX instrument. The EC50 for each compound was determined by calculating the percentages of the maximum activation identified with Resiquimod.

Turning to `CCC[C@H](C)Nc1nc(N)c2ncc(Cc3cnc(N4CCN[C@@H](CC#N)C4)c(C)c3)n2n1` [Compound B233, 2-((S)-4-(5-((4-amino-2-(((S)-pentan-2-yl)amino)imidazo[2,1-f][1,2,4]triazin-7-yl)methyl)-3-methylpyridin-2-yl)piperazin-2-yl)acetonitrile], the results for the EC50 at human TLR 8 protein and on human TLR7 were above 10 µM and 18.4 nM, respectively.
